In ChEMBL document CHEMBL3046458, “Pyraclostrobin sensitivity of baseline and fungicide exposed isolates of Pyrenophora tritici-repentis” (Crop Prot, 2012):
Converted amounts (≈) assume the structure as drawn.

Key:
Assay type in all cases: functional, organism-based
[1] = tested on: Pyrenophora tritici-repentis; assay: Antifungal activity against Pyrenophora tritici-repentis isolate Ptr 86-4 assessed as inhibition of conidia germination after 6 hr incubation; details: Ptr 86-4, 6 h
[2] = tested on: Pyrenophora tritici-repentis; assay: Antifungal activity against Pyrenophora tritici-repentis isolate Ptr 92 115-2-3 assessed as inhibition of conidia germination after 6 hr incubation in presence of SHAM; details: Ptr 92 115-2-3, 6 h
[3] = tested on: Pyrenophora tritici-repentis; assay: Antifungal activity against Pyrenophora tritici-repentis isolate Ptr 1A assessed as inhibition of conidia germination after 6 hr incubation
[4] = tested on: Pyrenophora tritici-repentis; assay: Antifungal activity against Pyrenophora tritici-repentis isolate Ptr 1A assessed as inhibition of conidia germination after 6 hr incubation in presence of SHAM
[5] = tested on: Pyrenophora tritici-repentis; assay: Antifungal activity against Pyrenophora tritici-repentis isolate Ptr 90 P7d assessed as inhibition of conidia germination after 6 hr incubation
[6] = tested on: Pyrenophora tritici-repentis; assay: Antifungal activity against Pyrenophora tritici-repentis isolate Ptr 92 115-2-3 assessed as inhibition of conidia germination after 6 hr incubation; details: Ptr 92 115-2-3, 6 h
[7] = tested on: Pyrenophora tritici-repentis; assay: Antifungal activity against Pyrenophora tritici-repentis isolate Ptr 4b assessed as inhibition of conidia germination after 6 hr incubation in presence of SHAM
[8] = tested on: Pyrenophora tritici-repentis; assay: Antifungal activity against Pyrenophora tritici-repentis isolate Ptr 90 DL-22 assessed as inhibition of conidia germination after 6 hr incubation; details: Ptr 90 DL-22, 6 h
[9] = tested on: Pyrenophora tritici-repentis; assay: Antifungal activity against Pyrenophora tritici-repentis isolate Ptr 4b assessed as inhibition of conidia germination after 6 hr incubation
[10] = tested on: Pyrenophora tritici-repentis; assay: Antifungal activity against Pyrenophora tritici-repentis isolate Ptr 92 120-2-2 assessed as inhibition of conidia germination after 6 hr incubation; details: Ptr 92 120-2-2, 6 h
[11] = tested on: Pyrenophora tritici-repentis; assay: Antifungal activity against Pyrenophora tritici-repentis isolate Ptr 92 148-1-1 assessed as inhibition of conidia germination after 6 hr incubation in presence of SHAM; details: Ptr 92 148-1-1, 6 h
[12] = tested on: Pyrenophora tritici-repentis; assay: Antifungal activity against Pyrenophora tritici-repentis isolate Ptr 86-4 assessed as inhibition of conidia germination after 6 hr incubation in presence of SHAM; details: Ptr 86-4, 6 h
[13] = tested on: Pyrenophora tritici-repentis; assay: Antifungal activity against Pyrenophora tritici-repentis isolate Ptr 92 145-2-4 assessed as inhibition of conidia germination after 6 hr incubation; details: Ptr 92 145-2-4, 6 h
[14] = tested on: Pyrenophora tritici-repentis; assay: Antifungal activity against Pyrenophora tritici-repentis isolate Ptr 92 120-2-2 assessed as inhibition of conidia germination after 6 hr incubation in presence of SHAM; details: Ptr 92 120-2-2, 6 h
[15] = tested on: Pyrenophora tritici-repentis; assay: Antifungal activity against Pyrenophora tritici-repentis isolate Ptr 92 148-1-1 assessed as inhibition of conidia germination after 6 hr incubation; details: Ptr 92 148-1-1, 6 h
[16] = tested on: Pyrenophora tritici-repentis; assay: Antifungal activity against Pyrenophora tritici-repentis isolate Ptr 90 P7d assessed as inhibition of conidia germination after 6 hr incubation in presence of SHAM
[17] = tested on: Pyrenophora tritici-repentis; assay: Antifungal activity against Pyrenophora tritici-repentis isolate Ptr 92 145-2-4 assessed as inhibition of conidia germination after 6 hr incubation in presence of SHAM; details: Ptr 92 145-2-4, 6 h
[18] = tested on: Pyrenophora tritici-repentis; assay: Antifungal activity against Pyrenophora tritici-repentis isolate Ptr 90 DL-22 assessed as inhibition of conidia germination after 6 hr incubation in presence of SHAM; details: Ptr 90 DL-22, 6 h
[19] = tested on: Pyrenophora tritici-repentis; assay: Antifungal activity against Pyrenophora tritici-repentis isolate Ptr 92 119-2-3 assessed as inhibition of conidia germination after 6 hr incubation; details: Ptr 92 119-2-3, 6 h
[20] = tested on: Pyrenophora tritici-repentis; assay: Antifungal activity against Pyrenophora tritici-repentis isolate Ptr 92 119-2-3 assessed as inhibition of conidia germination after 6 hr incubation in presence of SHAM; details: Ptr 92 119-2-3, 6 h

COC(=O)N(OC)c1ccccc1COc1ccn(-c2ccc(Cl)cc2)n1 [PYRACLOSTROBIN] was tested, and the EC50 [1] was 3.4 ng/mL (≈ 0.00877 µM), the EC50 [2] was 2.3 ng/mL and the EC50 [3] was 9.9 ng/mL (≈ 0.0255 µM). It also gave an EC50 [4] of 2.2 ng/mL, an EC50 [5] of 3.3 ng/mL (≈ 0.00851 µM) and an EC50 [6] of 12.4 ng/mL (≈ 0.032 µM). For the same compound, the EC50 [7] was 1.6 ng/mL, the EC50 [8] was 11.8 ng/mL (≈ 0.0304 µM) and the EC50 [9] was 3.8 ng/mL (≈ 0.0098 µM). It also gave an EC50 [10] of 8.1 ng/mL (≈ 0.0209 µM), an EC50 [11] of 2.3 ng/mL and an EC50 [12] of 1.6 ng/mL. For the same compound, the EC50 [13] was 3.8 ng/mL (≈ 0.0098 µM), the EC50 [14] was 2.1 ng/mL and the EC50 [15] was 5.1 ng/mL (≈ 0.0132 µM). It also gave an EC50 [16] of 1.6 ng/mL, an EC50 [17] of 1.5 ng/mL and an EC50 [18] of 1.6 ng/mL. The EC50 [19] was 3.8 ng/mL (≈ 0.0098 µM) and the EC50 [20] was 2 ng/mL.
